Patent US4629740A, “Anticonvulsant agents” (Eli Lilly and Company, priority 1984, dated 1986)

What was measured:
seizures in man = settings: cited from earlier work
[1] = test system: Cox standard strain albino male mice (extensor tonic convulsions); experiment: electroshock induced convulsion inhibition assay (E.S.); type: in vivo; settings: for ED50: Mus musculus, po, 1 h, by gavage, 60 minutes before 0.1 second, 50 milliampere corneal electroshock, inhibition of extensor tonic convulsions in one half of mice
Method: (§1) In the electroshock induced convulsion inhibition assay (E.S.), the compound to be tested was dissolved in water (5%--sufficient hydrochloric acid was added for those compounds which were not isolated as a salt in order to effect dissolution) and administered by gavage to each of three Cox standard strain albino male mice (18-24 g.) at the dose level being investigated. Sixty minutes after compound administration, the mice were subjected to a 0.1 second, 50 milliampere electroshock through corneal electrodes. The animals were examined and evaluated immediately after the electroshock for the occurrence of clonic, flexor tonic, or extensor tonic convulsions, or death and the ED50 was determined for each compound as the dose which inhibited the occurrence of extensor tonic convulsions in one half of the animals immediately after the electroshock. For comparison, 18 milliamperes was usually sufficient to produce extensor tonic convulsions in about half of the control animals; at 50 milliamperes, almost all control animals (receiving vehicle only) died.

in vivo = experiment: in vivo; set-up: species or system mice; settings: mouse, po
Method: (§2) The compounds were also evaluated for determining toxic potential. In determining toxic potential as manifested by neurological deficit, ataxia, or sedation, the "horizontal screen" (H.S.) was employed. This test is well accepted as a measure of impaired motor function in mice. The methodology was identical to that taught by Coughenour, et al., Pharmacology, Biochemistry and Behavior, 6, 351 (1977). For each compound, the ED50 was determined as the dose which caused one half of the animals to fail to reach the top of the screen. The compounds were administered to the mice in the same manner as described above for the electroshock assay 60 minutes before they were tested in the horizontal screen assay.

[2] = protective index (P.I.), ratio of horizontal screen ED50 over electroshock ED50; type: in vivo, mice; settings: mouse, in vivo, po; mice, gavage; read-out: Protective Index (H.S. ED50 /E.S. ED50)
Method: as §1, §2
(§3) From the above two test systems, the protective index (P.I.) can be calculated as the ratio of the horizontal screen ED50 over the ED50 of the electroshock assay. Thus, a large P.I. is indicative of a broader therapeutic range. A large P.I. thus provides a wide margin of safety allowing greater flexibility in treating epilepsy and other convulsive disorders.

mice = experiment: as above; type: in vivo; settings: enantiomers compared with each other or the racemate
Method: as §1, §2, §3

[3] = test system: maximal electroshock seizure; settings: racemic form; reported in U.S. Pat. No. 4,379,165; cited from earlier work

Structure (SMILES) | plasma level at which seizures are controlled (seizures in man; Gilman, Goodman, and Gilman, 6th Ed.) [µg/mL] | plasma level at which ataxia is obvious (seizures in man) [ng/mL] | plasma level at which lethargy is apparent (seizures in man) | plasma level at which nystagmus is seen (seizures in man) | ED50 [1] [mg/kg] | TD50 at 1 h (in vivo) [mg/kg] | selectivity ratio at 1 h [2] | protective index (in words) (mice) | protective index (P.I.), TD50 (Rotorod) to ED50 (maximal electroshock seizure) [3] | anticonvulsant potency (in words) ([1]; (S)-isomer compared with (R)-isomer and racemate)
O=C1NC(=O)C(c2ccccc2)(c2ccccc2)N1 [phenytoin] | ≥ 10 | 30000 | about 40 mcg./ml. | around 20 mcg./ml. | – | – | – | – | – | –
C[C@@H](NC(=O)c1ccc(N)cc1)c1ccccc1 [(R), (R)-4-amino-N-(1-phenylethyl)benzamide] | – | – | – | – | 17.8 | 480 | 27 | increased protective index ratio | – | –
CC(NC(=O)c1ccc(N)cc1)c1ccccc1 (racemic) [(R,S), (R,S)-4-amino-N-(1-phenylethyl)benzamide] | – | – | – | – | 12.5 | 105 | 8.4 | – | 9.48 | –
C[C@H](NC(=O)c1ccc(N)cc1)c1ccccc1 [(S), (S)-4-amino-N-(1-phenylethyl)benzamide] | – | – | – | – | 10 | 141 | 14.1 | – | – | more potent as an anticonvulsant agent than either the (R)-isomer or the racemate
